Experiment [1] has as its system colchicine site on tubulin (Porcine brain tubulin). Put plainly: Colchicine displacement assay, fluorometric detection. It is filed as binding. The following applies: 2 μM porcine brain tubulin, 2 μM colchicine, compound at 20 μM, 2 h; control = colchicine bound to tubulin. As to the method: To study whether the compounds bind to the colchicine site on tubulin, a colchicine displacement assay using fluorometric detection was performed as previously described (Bhattacharyya B. et al.; Proc Natl Acad Sci U S A 1974, 71:2627-31; Risinger A L. et al.; J Pharmacol Exp Ther 2011: 336:652-60). Porcine brain tubulin at 2 μM (Cytoskeleton) in a buffer consisting of 80 mM PIPES, 2 mM MgCl2, 0.5 mM EGTA at pH 7.0 with addition of 1 mM GTP, was incubated alone, with 2 μM colchicine or with 2 μM colchicine in the presence of test compounds or reference compound combretastatin A4 at 20 μM for 2 h in a black half-area 96-well plate (Corning Inc, Corning, N.Y., USA). Thereafter, the fluorescence was measured using a FLUOStar Optima (BMG Labtech) at an excitation of 380 nm and emission of 440 nm. The results are presented as percent of control i.e. colchicine bound to tubulin.

In experiment [2] the test system is VEGF-induced cord formation. Description: VEGF-driven vascular cord formation, stem cell co-culture model of angiogenesis (StemKit), neo-angiogenic setting. It is filed as cell-based. As to the method: (§1) To study the vascular disrupting properties of one of the compounds, example 3, an evaluation of its inhibitory and disruptive effects on VEGF-driven vascular cord formation in an in vitro stem cell co-culture model of angiogenesis (StemKit, Essen Bioscience) was carried out.

A further experiment relates to established vessels. Description: Stem cell co-culture model of angiogenesis (StemKit), established vessels. It is filed as cell-based. The settings on record: doses from 3 nM up to 100 nM, example 3 and combretastatin A4 had equal potency. As to the method: as §1
The test system of experiment [3] is CCRF-CEM cancer cells - leukemia. Put plainly: Fluorometric Microculture Cytotoxicity Assay (FMCA), CCRF-CEM. It is filed as cell-based. The following applies: Homo sapiens, 72 h, CCRF-CEM acute lymphoblastic leukemia cell line. The source says:
(§2) The Fluorometric Microculture Cytotoxicity Assay, FMCA (Larsson, R., et al.; Anticancer Res, 1989, 9, 1111-1119), is a three day non-clonogenic microplate-based cell viability assay used for measurement of the cytotoxic and/or cytostatic effect of compounds in vitro (Lindhagen, E. et al.; Nat. Protoc., 2008, 3, 1364-1369). FMCA represents a valuable method to measure cytotoxicity in a number of cell types, both cell lines and primary cells from patients (Larsson, R., et al.; Int. J. Cancer, 1992, 50, 177-185; Fridborg, H., et al.; Eur. J. Cancer, 1999. 35, 424-432; Dhar, S., et al.; Br. J. Cancer, 1996, 74, 888-896).
(§3) FMCA is based on the principle that fluorescein diacetate (FDA) is converted to the fluorescent probe fluorescein by esterases […]. For experiments, 96-well microplates are prepared with compounds and stored at −20° C. or −70° C. until use. Cells are then seeded into the drug-prepared plates and placed in an incubator for 72 h. On the last day of incubation, the plates are washed and a buffer containing FDA is added and incubated with the cells for 45 minutes. Finally the fluorescence per well is measured in a fluorometer and a Survival Index % (SI) for each compound-treated well is calculated with the equation: Compound-treated cells minus blank divided by control cells minus blank. A high SI-value indicates a large percentage of living cells and vice versa.
For experiments with compounds of the invention, 96-well plates were prepared as follows: Compounds were dissolved in DMSO to 10 mM and stored at −20° C. The test compounds were thawed, protected from light, mixed, and 3 μl stock solution was added to test tubes containing 297 μl culture medium RPMI-1640, to give the concentration 100 μM. Then, compounds were serially diluted to concentrations ten times higher than the desired test concentrations. Finally, 20 μl of each compound solution was added in duplicates to wells in two V-bottomed 96-well plates. The plates were stored at −20° C. until use.
On the day of cell seeding, 180 μl of cell suspension was added to each well in the two assay plates. The final concentrations of compounds tested were 10 μM, 1 μM, 0.1 μM and 0.01 μM. The experiment was performed twice.
In subsequent experiments, compounds were tested, along with a number of approved cancer drugs (dasatinib and pazopanib) as described above. The acute lymphoblastic leukemia cell line CCRF-CEM was used throughout. In the assay plates, medium was added to eight empty wells (blank wells) and wells filled with cell suspension served as control wells. SI-values were then calculated for each compound-treated well as described above. All experiments were conducted twice and a new batch of plates was prepared for each experiment.
(§4) To obtain EC50-values, plates were prepared with compounds serially diluted in culture media to suitable concentration ranges for each compound. Thereafter cells were added at a density of 10 000 cells per well and FMCA was performed after 72 h. Data analysis was performed using GraphPadPrism software, where SI values for each concentration were plotted on a log scale and processed with non-linear regression and a standard sigmoidal dose-response model.

In the next experiment the test system is A2780. Description: FMCA cytotoxicity, ovarian cancer cell line A2780. It is filed as cell-based. The following applies: Homo sapiens.
Description: as §2, §3, §4
(§5) The compounds of the invention were also tested on further cancer cell lines related to ovarian cancer (A2780; see e.g. Hamilton, T. et al.; Semin. Oncol., 1984, 11, 285-298) and multidrug-resistant ovarian cancer (A2780/Adr). The known microtubule interfering agents vincristine and paclitaxel were included as references in the resistant and non-resistant ovarian cancer cell lines.

The next experiment relates to A2780/Adr. Put plainly: FMCA cytotoxicity, multidrug-resistant ovarian cancer cell line A2780/Adr. The format is cell-based.
Description: as §2, §3, §4, §5

For the next experiment, the system named is bovine tubulin protein. Put plainly: Tubulin polymerization assay kit (Cytoskeleton Inc), fluorescence. It is filed as biochemical. The following applies: cell-free, example compounds at 1, 3 and 10 μM, controls at 3 μM, 60 mins, read-out: Inhibition of tubulin polymerization IC50. As to the method: Example compounds were further tested in a tubulin polymerization assay kit from Cytoskeleton Inc (Denver, Colo., USA). Polymerization is followed by fluorescence enhancement due to the incorporation of a fluorescent reporter into microtubules as polymerization occurs. Vincristine and paclitaxel at 3 μM were used as positive controls for tubulin polymerization inhibition and stabilisation, respectively. All compounds were dissolved in DMSO, which was used as solvent control. For experiments, example compounds (1, 3, and 10 μM) and control compounds (3 μM) were incubated with bovine tubulin protein in a cell-free environment and the fluorescence was then measured in a fluorometer (Fluostar Optima, BMG Labtech, Offenburg, Germany) at 360/450 nm every minute for a total of 60 mins.

Experimental findings from US20150225374A1, “4-INDAZOLYLAMINO-2-(2-(INDOL-3-YL)ETHYL)AMINOPYRIMIDINES USEFUL FOR THE TREATMENT OF CANCER” (NOVIGA RESEARCH AB, priority 2012, published 2015) are described below.

In the case of `COc1ccc(/C=C\c2cc(OC)c(OC)c(OC)c2)cc1O` [Combretastatin A4, combretastatin A4, reference compound], the “Colchicine-tubulin binding Percent of control” value in experiment [1] was 66% of control. The “threshold concentration of inhibitory effect on VEGF-induced cord formation” value in experiment [2] (tested from 0.78 nM and upwards, dose dependent inhibitory effect) was determined as 1.6 nM. Further, the “disruption of established blood vessels” value in the experiment on established vessels is reported as “concentration dependent disruption of blood vessels”.
On to `CCOc1ccc2[nH]cc(CCNc3nccc(Nc4cccc5c4cnn5C)n3)c2c1` [Example 1], for which the EC50 in experiment [3] came to 0.0019 µM; with A2780, 0.0004 µM; with A2780/Adr it was 0.0036 µM. Also, the IC50 in the experiment with bovine tubulin protein lay in the range of 1 to 3 µM. Also, the “Colchicine-tubulin binding Percent of control” value in experiment [1] is reported as 68% of control.
For `COc1ccc2[nH]cc(CCNc3nccc(Nc4ccc5cn(C)nc5c4)n3)c2c1` [Example 2, N^2-[2-(5-methoxy-1H-indol-3-yl)ethyl]-N^4-(2-methyl-2H-indazol-6-yl)pyrimidine-2,4-diamine], the figures for the EC50 (in experiment [3]; in the experiment on A2780; in the experiment on A2780/Adr) were 0.0051 µM, 0.0093 µM and 0.034 µM, respectively. For the same compound, in experiment [1], the “Colchicine-tubulin binding Percent of control” value is given as 77% of control.
In the case of `CCOc1ccc2[nH]cc(CCNc3nccc(Nc4ccc5cn(C)nc5c4)n3)c2c1` [Example 3, N^2-[2-(5-ethoxy-1H-indol-3-yl)ethyl]-N^4-(2-methyl-2H-indazol-6-yl)pyrimidine-2,4-diamine], the EC50 was 0.0053 µM in experiment [3], 0.00072 µM in the experiment on A2780 and 0.016 µM in the experiment on A2780/Adr. Besides, the IC50 in the experiment with bovine tubulin protein is about 3 µM. Moreover, the “Colchicine-tubulin binding Percent of control” value in experiment [1] is on record as 68% of control. For the same compound, in experiment [2] (from the lowest tested dose 4.6 nM up to 10 μM), the “inhibition of VEGF-induced cord formation” value was found to be 100%. In addition, the “disruption of established blood vessels” value with established vessels is “concentration dependent disruption of blood vessels”.
As for `COc1ccc2[nH]cc(CCNc3nccc(Nc4ccc5c(C)n(C)nc5c4)n3)c2c1` [Example 4, N^4-(2,3-dimethyl-2H-indazol-6-yl)-N^2-[2-(5-methoxy-1H-indo1-3-yl)ethyl]pyrimidine-2,4-diamine], the results for the EC50 (in experiment [3]; with A2780; in the experiment with A2780/Adr) were 0.011 µM, 0.034 µM and 0.37 µM, respectively. For the same compound, in the experiment with bovine tubulin protein, the IC50 is about 3 µM. The “Colchicine-tubulin binding Percent of control” value in experiment [1] was 94% of control.
Turning to `CCOc1ccc2[nH]cc(CCNc3nccc(Nc4ccc5c(C)n(C)nc5c4)n3)c2c1` [Example 5, N^4-(2,3-dimethyl-2H-indazol-6-yl)-N^2-[2-(5-ethoxy-1H-indol-3-yl)ethyl]pyrimidine-2,4-diamine], the EC50 in experiment [3] is 0.0055 µM; with A2780, 0.0085 µM; in the experiment on A2780/Adr it was 0.15 µM.
As to `CCOc1ccc2[nH]cc(CCNc3nc(C)cc(Nc4ccc5c(C)n(C)nc5c4)n3)c2c1` [Example 6, N^4-(2,3-dimethylindazol-6-yl)-N^2-[2-(5-ethoxy-1H-indol-3-yl)ethyl]-6-methyl-pyrimidine-2,4-diamine], the results for the EC50 (in experiment [3]; in the experiment on A2780; in the experiment with A2780/Adr) were 0.034 µM, 0.047 µM and 0.39 µM, respectively. In addition, in the experiment with bovine tubulin protein, the IC50 fell in the range of 3 to 10 µM. In addition, the “Colchicine-tubulin binding Percent of control” value in experiment [1] is recorded as 99% of control.
In the case of `COc1ccc2[nH]cc(CCNc3nccc(Nc4cccc5c4cnn5C)n3)c2c1` [Example 7, N^2-[2-(5-methoxy-1H-indol-3-yl)ethyl]-N^4-(1-methylindazol-4-yl)pyrimidine-2,4-diamine], the EC50 in experiment [3] was found to be 0.0051 µM; in the experiment on A2780, 0.0029 µM; in the experiment with A2780/Adr, 0.013 µM. In addition, the “Colchicine-tubulin binding Percent of control” value in experiment [1] is 64% of control.
As for `CC(=O)O[C@H]1C(=O)[C@@]2(C)[C@H]([C@H](OC(=O)c3ccccc3)[C@]3(O)C[C@H](OC(=O)[C@H](O)[C@@H](NC(=O)c4ccccc4)c4ccccc4)C(C)=C1C3(C)C)[C@]1(OC(C)=O)CO[C@@H]1C[C@@H]2O` [Paclitaxel, paclitaxel, reference compound], the EC50 was 0.00026 µM in the experiment on A2780 and 0.81 µM in the experiment with A2780/Adr.
Consider `Cc1nc(Nc2ncc(C(=O)Nc3c(C)cccc3Cl)s2)cc(N2CCN(CCO)CC2)n1` [Ref. 1, dasatinib, reference compound], for which a half-maximal response in experiment [3] (EC50) required 9.7 µM.
The same measure, in the same setting: then `Cc1ccc(Nc2nccc(N(C)c3ccc4c(C)n(C)nc4c3)n2)cc1S(N)(=O)=O` [Ref. 2, pazopanib, reference compound], with 25.9 µM.
Consider `CC[C@]1(O)C[C@H]2CN(CCc3c([nH]c4ccccc34)[C@@](C(=O)OC)(c3cc4c(cc3OC)N(C=O)[C@H]3[C@@](O)(C(=O)OC)[C@H](OC(C)=O)[C@]5(CC)C=CCN6CC[C@]43[C@@H]65)C2)C1` [Vincristine, vincristine, reference compound], for which the figures for the EC50 in the experiment on A2780 and in the experiment with A2780/Adr were 0.00022 µM and 0.21 µM, respectively. Besides, the IC50 with bovine tubulin protein is under 3 µM.

In general, EC50 refers to the midpoint of the concentration-response curve. One may read the IC50 as the concentration that inhibits the measured activity by half.
